The values that follow come from patent US7576222B2, “Alkynyl-containing tryptophan derivative inhibitors of TACE/matrix metalloproteinase” (priority 2004, dated 2009).

The target of test [1] is T1, catalytic domain of the recombinant TACE protein (Homo sapiens, UniProt P78536).
T1 construct: The catalytic domain of the recombinant TACE protein was expressed and purified; made in house
The test is described as follows: TACE FRET assay using TACE cat. In kind it is biochemical. The settings on record: for inhibition at 1 µM: read-out: TACE Inhibition (%). In outline: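 Initial fluorescence rate of Abz-[sequence]-Dpa pro-TNF-α peptide cleavage (substrate from 2 mM stock) read after adding substrate to enzyme (1 ug/ml) preincubated 10 min, room temperature, with inhibitor.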

Test [2] deals with T2, recombinant human catalytic domain of MMP-13 (Homo sapiens, UniProt P45452).
T2 construct: catalytic domain of MMP-13 (165 amino acids, residues 104-268, 19 kDa)
The test is described as follows: biochemical. An excerpt: (§1) A continuous assay was used in which the substrate is a synthetic peptide containing a fluorescent group (7-methoxycoumarin; Mca) that is quenched by energy transfer to a 2,4-dinitrophenyl group. See Knight, C. G. et al., FEBS Lett. (1992) 296: 263-266, incorporated herein by reference in its entirety. […] See Zhang, Y et al., Journal of Pharmacology and Experimental Therapeutics (JPET) (2004) 309:348-355, incorporated by reference in its entirety. The substrate used was Mca-PQGL-(3-[2,4-dinitrophenyl]-L-2,3-diaminopropionyl)-AR-OH (denoted as Wammp-5, custom synthesized by AnaSpec, Inc., San Jose, Calif.). The assay buffer consisted of 50 mM Hepes (pH 7.4), 100 mM NaCl, 5 mM CaCl2, and 0.005% Brij-35. Each well of black polystyrene 96-well plates contained a 200 μl reaction mixture consisting of assay buffer, purified MMP (final concentration of 25 ng/ml, prepared by diluting with the assay buffer), and varied concentrations of inhibitor (prepared by serially diluting a given inhibitor in DMSO in 96-well polypropylene plate). The plates were then incubated at 30° C. for 15 minutes. The enzymatic reactions were initiated by adding the substrate to a final concentration of 20 μM, and mixing 10 times with a pipette. The final DMSO concentration in the assay was 6.0%. The initial rate of the cleavage reaction was determined at 30° C. with a fluorescence plate reader (excitation filter of 330 nm and emission filter of 395 nm) immediately after substrate addition.
(§2) Plots of the inhibitor concentration versus the percent inhibition were fit to the following equation: y=(a−d)/[1+(x/c)^b]+d, a general sigmoidal curve with Hill slope, a to d. x is the inhibitor concentration under test. “y” is the percent inhibition. “a” is the limiting response as x approaches zero. As x increases without bound, y tends toward its limit d. “c” is the inflection point (IC50) for the curve. That is, y is halfway between the lower and upper asymptotes when x=c. “b” is the slope factor or Hill coefficient.
In-Vitro Fluorescence Assay of MMP-13 Activity
See Zhang, Y et al., Journal of Pharmacology and Experimental Therapeutics (JPET) (2004) 309:348-355, incorporated by reference in its entirety.

The target of test [3] is T3, recombinant human MMP-2 (Homo sapiens, UniProt P08253).
T3 construct: purchased Oncogene Research Products (Calbiochem) PF023
T3 sequence (P08253 110-660): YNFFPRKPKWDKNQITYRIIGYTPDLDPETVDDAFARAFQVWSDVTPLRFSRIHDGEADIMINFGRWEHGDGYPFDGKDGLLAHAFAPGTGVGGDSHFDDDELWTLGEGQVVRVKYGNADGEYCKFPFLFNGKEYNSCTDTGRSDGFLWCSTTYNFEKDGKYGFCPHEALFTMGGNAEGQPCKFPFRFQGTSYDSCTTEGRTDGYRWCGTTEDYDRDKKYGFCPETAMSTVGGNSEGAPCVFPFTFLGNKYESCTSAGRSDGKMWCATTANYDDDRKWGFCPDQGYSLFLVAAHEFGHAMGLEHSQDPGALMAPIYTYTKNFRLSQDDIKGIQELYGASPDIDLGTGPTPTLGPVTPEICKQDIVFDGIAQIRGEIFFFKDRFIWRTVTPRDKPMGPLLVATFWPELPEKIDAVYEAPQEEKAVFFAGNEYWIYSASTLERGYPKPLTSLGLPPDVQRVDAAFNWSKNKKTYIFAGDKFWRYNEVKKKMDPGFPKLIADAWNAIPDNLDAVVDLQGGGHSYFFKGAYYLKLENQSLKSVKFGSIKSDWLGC
Put plainly: In-vitro fluorescence (FRET) assay of MMP-2 activity. In kind it is biochemical.
Description: as §1, §2
In-Vitro Fluorescence Assay of MMP-2 Activity

Test [4] relates to TNF-α Secretion in Raw Cells (Raw 264.7 cells). Put plainly: Cell-based assay for inhibition of TNF-α secretion in Raw cells. The settings on record: Mus musculus, RAW264.7, 4 h, read-out: TNF-α Secretion in Raw Cells IC50. As to the method: Cell-Based Assay for Inhibition of TNF-A Secretion in Raw Cells
The basic measurement of the assay is the percentage of inhibition of TNF-α secretion and the IC50 determination by a fitting with the model-39 of LSW data analysis tool.
Raw 264.7 cells (ATCC Cat No. TIB-71) are maintained in DMEM medium containing 10% of serum, P/S, and Glutamine. […] For testing compounds, cells are cultured to confluence and are seeded the day before the experiment in 24 well culture dishes at 0.5 to 1 million/ml/well. On the next morning, the medium from the overnight culture is replaced with the fresh growth medium. The compounds are added at various concentrations at the 0.2% of final DMSO concentrations (10 μl of a 20% DMSO solution containing testing compounds is added to each well). The cells are pre-incubated with compounds for 1 hour. LPS (Sigma, L2262) is added to cells at a final concentration of 100 ng/ml (10 μl of a […] LPS solution freshly diluted from a 1 mg/ml LPS stock solution in PBS is added to each well) and cells are further incubated for 4 hours at 37° C. One milliliter (1 ml) of the supernatant was collected, cells are spun down and the supernatants are frozen at −80° C. until use.
The TNF-α and other proinflammatory cytokines were detected by ELISA assay according to the manufacturer's instruction (Biosource International, Inc., Camarillo, Calif.) (For IL-1b measurement in Raw cells, one round of freeze and thaw of the cells was required.)

Where [5] appears, read: TACE FRET assay, catalytic domain of recombinant TACE, read-out: TACE IC50.

Where two headings read alike, the source gives them in different places.

T1 sequence (P78536 223-474 limits assumed): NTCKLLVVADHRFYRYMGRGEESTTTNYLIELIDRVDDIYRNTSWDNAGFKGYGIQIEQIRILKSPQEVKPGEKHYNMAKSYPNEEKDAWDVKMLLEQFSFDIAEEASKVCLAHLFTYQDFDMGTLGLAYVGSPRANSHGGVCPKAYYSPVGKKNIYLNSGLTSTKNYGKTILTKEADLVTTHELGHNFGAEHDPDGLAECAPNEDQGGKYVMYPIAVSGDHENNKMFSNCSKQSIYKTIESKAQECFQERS

On to `CC#CCOc1ccc(S(=O)(=O)NC(Cc2c[nH]c3ccc(C)cc23)C(=O)O)cc1` (racemic) [Example 6, N-{[4-(but-2-ynyloxy)phenyl]sulfonyl}-5-methyltryptophan], for which the IC50 was 0.28 µM in test [1], 6.87 µM in test [2] and 1.16 µM in test [3].

Regarding `CC#CCOc1ccc(S(=O)(=O)NC(Cc2c[nH]c3ccc(OCc4ccccc4)cc23)C(=O)O)cc1` (racemic) [Example 20, 5-(benzyloxy)-N-{[4-(but-2-ynyloxy)phenyl]sulfonyl}tryptophan], the IC50 was determined as 0.75 µM in test [1], 15.3 µM in test [2] and 7.85 µM in test [3].

Turning to `CC#CCOc1ccc(S(=O)(=O)N[C@H](Cc2cn(CCCCOc3ccccc3)c3ccccc23)C(=O)O)cc1` [Example 24, N-{[4-(but-2-ynyloxy)phenyl]sulfonyl}-1-(4-phenoxybutyl)-D-tryptophan], the IC50 in test [4] was above 60 µM; in test [1] (setting [5]) it was 1.25 µM.

For `CC#CCOc1ccc(S(=O)(=O)N[C@H](Cc2cn(Cc3ccccc3-c3ccccc3)c3ccccc23)C(=O)O)cc1` [Example 27, 1-(1,1′-biphenyl-2-ylmethyl)-N-{[4-(but-2-ynyloxy)phenyl]sulfonyl}-D-tryptophan], the figures for the IC50 in test [4] and in test [1] (setting [5]) were above 60 µM and 0.97 µM, respectively.

For `CC#CCOc1ccc(S(=O)(=O)N[C@H](Cc2cn(Cc3ccc(F)cc3)c3ccccc23)C(=O)O)cc1` [Example 28, N-{[4-(but-2-ynyloxy)phenyl]sulfonyl}-1-(4-fluorobenzyl)-D-tryptophan], the IC50 was determined as 1.9 µM in test [1] (setting [5]), 17 µM in test [2] and 3.97 µM in test [3].

Take `CC#CCOc1ccc(S(=O)(=O)N[C@@H](Cc2c(C)n(Cc3ccc(F)cc3)c3ccc(OC)cc23)C(=O)O)cc1` [Example 199, N-{[4-(but-2-ynyloxy)phenyl]sulfonyl}-1-(4-fluorobenzyl)-5-methoxy-2-methyltryptophan]: the IC50 was above 60 µM in test [4] and 0.32 µM in test [1].

In the case of `CC#CCOc1ccc(S(=O)(=O)N[C@@H](Cc2c(C)n(CC)c3ccc(OC)cc23)C(=O)O)cc1` [Example 209, N-{[4-(but-2-ynyloxy)phenyl]sulfonyl}-1-ethyl-5-methoxy-2-methyltryptophan], the inhibition at 1 µM in test [1] was 69.8%.

Consider `CC#CCOc1ccc(S(=O)(=O)N[C@@H](Cc2c(C)n(CC(C)C)c3ccc(OC)cc23)C(=O)O)cc1` [Example 210, N-{[4-(but-2-ynyloxy)phenyl]sulfonyl}-1-isobutyl-5-methoxy-2-methyltryptophan], for which the inhibition at 1 µM in test [1] worked out at 66.6%.

`CC#CCOc1ccc(S(=O)(=O)N[C@@H](Cc2c(C)n(CCCCC)c3ccc(OC)cc23)C(=O)O)cc1` [Example 211, N-{[4-(but-2-ynyloxy)phenyl]sulfonyl}-5-methoxy-2-methyl-1-pentyltryptophan]: the inhibition at 1 µM in test [1] came to 72.2%.

Consider `CC#CCOc1ccc(S(=O)(=O)N[C@@H](Cc2c(C)n(CC3CCC3)c3ccc(OC)cc23)C(=O)O)cc1` [Example 212, N-{[4-(but-2-ynyloxy)phenyl]sulfonyl}-1-(cyclobutylmethyl)-5-methoxy-2-methyltryptophan], for which the inhibition at 1 µM in test [1] was determined as 59.5%.

Turning to `CC#CCOc1ccc(S(=O)(=O)N[C@@H](Cc2c(C)n(CC3CCCCC3)c3ccc(OC)cc23)C(=O)O)cc1` [Example 213, N-{[4-(but-2-ynyloxy)phenyl]sulfonyl}-1-(cyclohexylmethyl)-5-methoxy-2-methyltryptophan], the inhibition at 1 µM in test [1] amounted to 60.5%.

As to `CC#CCOc1ccc(S(=O)(=O)N[C@H](Cc2cn(Cc3ccc(O)cc3)c3ccccc23)C(=O)O)cc1` [Example 214, N-{[4-(but-2-ynyloxy)phenyl]sulfonyl}-1-(4-hydroxybenzyl)-D-tryptophan], the inhibition at 1 µM in test [1] is 8.77%.

As to `CC#CCOc1ccc(S(=O)(=O)N[C@H](Cc2cn(Cc3ccc(OCC)cc3)c3ccccc23)C(=O)O)cc1` [Example 215, N-{[4-(but-2-ynyloxy)phenyl]sulfonyl}-1-(4-ethoxybenzyl)-D-tryptophan], in test [1], the inhibition at 1 µM was found to be 69.5%.

In the case of `C=CCOc1ccc(Cn2cc(C[C@@H](NS(=O)(=O)c3ccc(OCC#CC)cc3)C(=O)O)c3ccccc32)cc1` [Example 216, 1-[4-(allyloxy)benzyl]-N-{[4-(but-2-ynyloxy)phenyl]sulfonyl}-D-tryptophan], in test [1] (setting [5]), the IC50 turned out to be 0.54 µM.

With `CC#CCOc1ccc(S(=O)(=O)N[C@H](Cc2cn(C(=O)OC(C)(C)C)c3ccccc23)C(=O)O)cc1` [Example 220, 1-(tert-butoxycarbonyl)-N-{[4-(but-2-ynyloxy)phenyl]sulfonyl}-D-tryptophan], the IC50 in test [1] (setting [5]) was 3.67 µM.

Consider “N-{[4-(but-2-ynyloxy)phenyl]sulfonyl}-methoxy-L(or D)-tryptophan [Example 222]”, for which the IC50 in test [1] (setting [5]) came to 10.1 µM.

As usually defined, the IC50 is the concentration that gives 50% inhibition. A word on the inhibition: it is the percentage by which the read-out fell short of the control.
